Data: patent US6207655A, “Bis-phosphonate confugates with alkylating moieties having antitumor activity” (Novuspharma S.p.A., priority 1997, dated 2001)

Tests used:
[1] = test system: multiple myeloma; settings: background statement; cited from earlier work
[2] = test system: human multiple myeloma HS-Sultan cells; experiment: experimental model of human multiple myeloma HS-Sultan, mean survival time; format: in vivo, human cells in SCID rats; settings: iv/iv, days +15, 18, 21; for TMS (MST = Mean Survival Time in days from the tumor inoculation): controls: MST 33-37; for Tox: HS-Sultan
Description: (§1) The experiment is performed by inoculating intravenously (i.v.) the human multiple myeloma HS-Sultan cells in SCID rats (immunodeficient rats) at day 0, followed by treatment i.v. with a compound of the invention at days 15, 18 and 21.
The activity of the compounds of the invention was evaluated in relationship with the following parameters:
Mean Survival Time (MST) in comparison with the not treated rats (which have a mean survival time of 30 days after tumor inoculation);

[3] = test system: human multiple myeloma HS-Sultan cells; experiment: histopathological examination of tumor infiltration in the human multiple myeloma model; format: in vivo, human cells in SCID rats; set-up: key to tumor infiltration score: -: absence of infiltration; +: slight infiltration; ++: middle to high infiltration; settings: for tumor infiltration score: 38 days from the treatment; for effect on the tumor infiltration (in words): human multiple myeloma model
Description: as §1
evaluation of histological parameters (bone marrow invasion and degree of osteolytic lesions).

[4] = test system: murine breast carcinoma Walker 256/B; experiment: antitumor activity in vivo against Walker 256/B implanted intratibia (TWI%); set-up: species or system murine tumor; male rats CD1; settings: it/iv, days 1, 4, 7; for TWI % (tumor weight inhibition %): measured day 14; for Tox: Walker 256/B
Description: The compounds of the invention have been tested "in vivo" against the murine breast carcinoma Walker 256/B implanted intratibia (it). After inoculation into the bone marrow cavity of the tibia, this tumor grows inside the bone causing osteolytic lesions, paraneoplastic hypercalcaemia and by invading the surrounding tissues it forms a measurable tumor mass. It is therefore possible to determine both the antitumor activity on the extraosseous tumor and the anti-osteolytic effect (Cancer, 72(1), 91 (1993)).
The Walker 256/B tumor was provided by NCI Frederick Cancer Facility and was maintained in male rats CD1 by means of subcutaneous transplantation of tumor fragments of about 1 cm diameter every 10 days.
To perform the experiment, each rat was injected it with 2.5×10^6tumor cells; all the animals were anesthetized with a mixture of 10 mg/kg of Ketalar (Park-Davis) and 5 mg/kg of Rompun (Bayer). After implantation inside the tibia, the tumor grows causing osteolytic lesions associated with an increased activity of the osteoclasts. To obtain an injectable cell suspension, the tumor fragments were decomposed by means of enzymatic digestion with type IV collagenases (Sigma) at a concentration of 400 U/ml for 20 minutes at 37° C.
The compounds of the invention have been administered i.v. at days 1, 4 and 7 after the tumor transplantation. The extraosseous tumor mass has been measured at day 14 after tumor transplantation. The antitumor activity was determined as TWI% (tumor weight inhibition %) calculated according to the following formula:
TWI%=(100-TW meantreated animals /TW meancontrols)×100
wherein the TW for each animal is given by the formula: […]
in which a and b are respectively the maximum and minimum diameter of the tumor mass, expressed in mm.

Compound: N[C@@H](Cc1ccc(N(CCCl)CCCl)cc1)C(=O)O [melphalan]
- activity against the multiple myeloma (in words) [1]: exploits activity against the multiple myeloma
- cure of the secondary bone tumor (in words) [1]: not able to cure the secondary bone tumor
- TMS (MST = Mean Survival Time in days from the tumor inoculation) ([2]; 6 mg/kg): 59 days
- Tox ([2]; 6 mg/kg): 1/5
- tumor infiltration score ([3]; Backbone (soft tissues), melfalan 6 mg/kg): -
- tumor infiltration score ([3]; Backbone, melfalan 6 mg/kg): +
- tumor infiltration score ([3]; Hind limbs (soft tissues), melfalan 6 mg/kg): -
- tumor infiltration score ([3]; Hind limbs, melfalan 6 mg/kg): +
- tumor infiltration score ([3]; Kidneys, melfalan 6 mg/kg): -
- tumor infiltration score ([3]; Sternum, melfalan 6 mg/kg): +
- effect on the tumor infiltration (in words) [3]: cannot be seen
- TWI % (tumor weight inhibition %) ([4]; 2.8 mg/kg): 71%
- Tox ([4]; 2.8 mg/kg): 11/144

Compound: O=C(C=C(C(=O)O)C(P(=O)(O)O)P(=O)(O)O)NC(Cc1ccc(N(CCCl)CCCl)cc1)C(=O)O (stereo not drawn) [compound (B)]
- TMS (MST = Mean Survival Time in days from the tumor inoculation) ([2]; 60 mg/kg): 70 days
- Tox ([2]; 60 mg/kg): 1/6
- tumor infiltration score ([3]; Backbone (soft tissues), (B) oO mg/kg): -
- tumor infiltration score ([3]; Backbone, (B) oO mg/kg): -
- tumor infiltration score ([3]; Hind limbs (soft tissues), (B) oO mg/kg): -
- tumor infiltration score ([3]; Hind limbs, (B) oO mg/kg): -
- tumor infiltration score ([3]; Kidneys, (B) oO mg/kg): +
- tumor infiltration score ([3]; Sternum, (B) oO mg/kg): -
- effect on the tumor infiltration (in words) [3]: selective inhibitory effect on the tumor infiltration
- TWI % (tumor weight inhibition %) ([4]; 20 mg/kg): 89%
- Tox ([4]; 20 mg/kg): 0/8
